In US9695178B2, “6-(2-pyridyl)-7,8-dihydro-5H-pyrido[4,3-D]pyrimidine analogs as hedgehog pathway signaling inhibitors and therapeutic applications thereof” (Suzhou Yunxuan Yiyao Keji Youxian Gongsi, priority 2013, dated 2017):

Target: Smo (Homo sapiens, UniProt Q99835)
Assay: Bodipy-Cyclopamine Binding Assay (confirmation assay), Hek293-SMO cells
Conditions: not given

Chain of Smo (Q99835 28-787): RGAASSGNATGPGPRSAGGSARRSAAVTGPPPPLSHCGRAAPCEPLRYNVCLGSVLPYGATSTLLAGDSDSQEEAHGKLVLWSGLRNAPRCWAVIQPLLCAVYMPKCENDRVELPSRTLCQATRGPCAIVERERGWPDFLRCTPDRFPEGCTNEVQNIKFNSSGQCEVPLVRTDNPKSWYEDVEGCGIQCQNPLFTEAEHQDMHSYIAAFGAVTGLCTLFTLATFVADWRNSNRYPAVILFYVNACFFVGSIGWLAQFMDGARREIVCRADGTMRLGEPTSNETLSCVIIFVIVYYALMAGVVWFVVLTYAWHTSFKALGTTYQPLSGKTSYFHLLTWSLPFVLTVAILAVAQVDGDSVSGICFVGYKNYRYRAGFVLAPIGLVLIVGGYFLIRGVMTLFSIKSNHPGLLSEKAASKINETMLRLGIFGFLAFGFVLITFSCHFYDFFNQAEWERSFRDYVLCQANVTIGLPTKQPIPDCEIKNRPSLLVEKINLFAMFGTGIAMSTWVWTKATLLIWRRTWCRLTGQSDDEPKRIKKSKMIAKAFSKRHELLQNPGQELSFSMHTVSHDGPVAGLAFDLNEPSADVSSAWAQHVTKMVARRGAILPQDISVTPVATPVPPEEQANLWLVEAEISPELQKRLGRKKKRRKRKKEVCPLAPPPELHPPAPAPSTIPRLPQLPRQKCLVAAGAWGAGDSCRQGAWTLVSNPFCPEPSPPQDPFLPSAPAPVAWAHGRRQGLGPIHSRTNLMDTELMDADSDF

IC50 [nM]	SMILES
> 1000	CCNC(=O)Nc1ncc2c(n1)CCN(c1cc(-c3ncc(C)cc3C)c(Cl)cn1)C2 [Compound A-91, 1-(6-(5′-chloro-3,5-dimethyl-2,4′-bipyridin-2′-yl)-5,6,7,8-tetrahydropyrido-[4,3-d]pyrimidin-2-yl)-3-ethylurea]
> 10000	Cc1cnc(-c2cc(N3CCn4cc(C(=O)O)nc4C3)ncc2Cl)c(C)c1 [Compound A-2, 7-(5′-chloro-3,5-dimethyl-2,4′-bipyridin-2′-yl)-5,6,7,8-tetrahydro-imidazo-[1,2-a]pyrazine-2-carboxylic acid]
244	Cc1cnc(-c2cc(N3CCn4cc(C(=O)N5CCCC5)nc4C3)ncc2Cl)c(C)c1 [Compound A-3, (7-(5′-chloro-3,5-dimethyl-2,4′-bipyridin-2′-yl)-5,6,7,8-tetrahydroimidazo[1,2-a]pyrazin-2-yl)(pyrrolidin-1-yl)methanone]
2010	Cc1cnc(-c2cc(N3CCn4cc(C(=O)N(C)CCO)nc4C3)ncc2Cl)c(C)c1 [Compound A-8, 7-(5′-chloro-3,5-dimethyl-2,4′-bipyridin-2′-yl)-N-(2-hydroxyethyl)-N-methyl-5,6,7,8-tetrahydro-imidazo-[1,2-a]pyrazine-2-carboxamide]
69.7	Cc1cnc(-c2cc(N3CCc4nc(N5CC(C)NC(C)C5)sc4C3)ncc2Cl)c(C)c1 (stereo not drawn) [Compound A-30, 5-(5′-chloro-3,5-dimethyl-2,4′-bipyridin-2′-yl)-2-(3,5-dimethyl-piperazin-1-yl)-4,5,6,7-tetrahydro-thiazolo-[5,4-c]pyridine]
28.1	Cc1cnc(-c2cc(N3Cc4cnc(NC5CC5)nc4C(C)(C)C3)ncc2Cl)c(C)c1 [Compound A-80, 6-(5′-chloro-3,5-dimethyl-2,4′-bipyridin-2′-yl)-N-cyclopropyl-8,8-dimethyl-5,6,7,8-tetrahydro-pyrido-[4,3-d]pyrimidin-2-amine]
190	CCNC(=O)Nc1nc2c(s1)CN(c1cc(-c3ncc(C)cc3C)c(Cl)cn1)CC2 [Compound A-42, 1-(5-(5′-chloro-3,5-dimethyl-2,4′-bipyridin-2′-yl)-4,5,6,7-tetrahydro-thiazolo-[5,4-c]pyridin-2-yl)-3-ethylurea]
134	Cc1cnc(-c2cc(N3CCc4nc(NC(=O)CCN5CCOCC5)sc4C3)ncc2Cl)c(C)c1 [Compound A-39, N-(5-(5′-chloro-3,5-dimethyl-2,4′-bipyridin-2′-yl)-4,5,6,7-tetrahydro-thiazolo-[5,4-c]pyridin-2-yl)-3-morpholino-propan-amide]
232	CNc1ncc2c(n1)CCN(c1cc(-c3ncc(C)cc3C)c(Cl)cn1)C2 [Compound A-50, 6-(5′-chloro-3,5-dimethyl-2,4′-bipyridin-2′-yl)-N-methyl-5,6,7,8-tetrahydro-pyrido-[4,3-d]pyrimidin-2-amine]
> 1000	Cc1cnc(-c2cc(N3CCn4cc(C(=O)OC5CCCC5)nc4C3)ncc2Cl)c(C)c1 [Compound A-17, cyclopentyl 7-(5′-chloro-3,5-dimethyl-2,4′-bipyridin-2′-yl)-5,6,7,8-tetrahydro-imidazo-[1,2-a]pyrazine-2-carboxylate]
18	Cc1cnc(-c2cc(N3CCc4nc(NC(C)C)ncc4C3)ncc2Cl)c(C)c1 [Compound A-60, 6-(5′-chloro-3,5-dimethyl-2,4′-bipyridin-2′-yl)-N-isopropyl-5,6,7,8-tetrahydro-pyrido-[4,3-d]pyrimidin-2-amine]
768	Cc1cnc(-c2cc(N3CCc4nc(N)sc4C3)ncc2Cl)c(C)c1 [Compound A-22, 5-(5′-chloro-3,5-dimethyl-2,4′-bipyridin-2′-yl)-4,5,6,7-tetrahydro-thiazolo-[5,4-c]pyridin-2-amine]
207	CCOc1ncc2c(n1)CCN(c1cc(-c3ncc(C)cc3C)c(Cl)cn1)C2 [Compound A-67, 6-(5′-chloro-3,5-dimethyl-2,4′-bipyridin-2′-yl)-2-ethoxy-5,6,7,8-tetrahydro-pyrido-[4,3-d]pyrim-idine]
85.1	Cc1cnc(-c2cc(N3CCc4nc(N5CCC(O)C5)ncc4C3)ncc2Cl)c(C)c1 (stereo not drawn) [Compound A-66, 1-(6-(5′-chloro-3,5-dimethyl-2,4′-bipyridin-2′-yl)-5,6,7,8-tetrahydro-pyrido-[4,3-d]pyrim-idin-2-yl)pyrrolidin-3-ol]
5.1	Cc1cnc(-c2cc(N3CCc4nc(N5CCC(O)CC5)ncc4C3)ncc2Cl)c(C)c1 [Compound A-55, 1-(6-(5′-chloro-3,5-dimethyl-2,4′-bipyridin-2′-yl)-5,6,7,8-tetrahydro-pyrido-[4,3-d]pyrimidin-2-yl)piperidin-4-ol]
423	COCC(=O)Nc1nc2c(s1)CN(c1cc(-c3ncc(C)cc3C)c(Cl)cn1)CC2 [Compound A-27, N-(5-(5′-chloro-3,5-dimethyl-2,4′-bipyridin-2′-yl)-4,5,6,7-tetrahydro-thiazolo-[5,4-c]pyridin-2-yl)-2-methoxy-acetamide]
507	Cc1cnc(-c2cc(N3CCn4cc(C(=O)Nc5ccccc5F)nc4C3)ncc2Cl)c(C)c1 [Compound A-20, 7-(5′-chloro-3,5-dimethyl-2,4′-bipyridin-2′-yl)-N-(2-fluorophenyl)-5,6,7,8-tetrahydro-imidazo-[1,2-a]pyrazine-2-carboxamide]
589	Cc1cnc(-c2cc(N3CCn4cc(C(=O)OC(C)C)nc4C3)ncc2Cl)c(C)c1 [Compound A-15, isopropyl 7-(5′-chloro-3,5-dimethyl-2,4′-bipyridin-2′-yl)-5,6,7,8-tetrahydro-imidazo-[1,2-a]pyrazine-2-carboxylate]
> 1000	Cc1cnc(-c2cc(N3CCc4nc(NS(C)(=O)=O)sc4C3)ncc2Cl)c(C)c1 [Compound A-45, N-(5-(5′-chloro-3,5-dimethyl-2,4′-bipyridin-2′-yl)-4,5,6,7-tetrahydro-thiazolo-[5,4-c]pyridin-2-yl)methane-sulfon-amide]
113	Clc1cnc(N2CCc3nc(NC4CC4)ncc3C2)cc1-c1ccc2ccccc2n1 [Compound A-112, 6-(5-chloro-4-(quinolin-2-yl)pyridin-2-yl)-N-cyclopropyl-5,6,7,8-tetrahydropyrido-[4,3-d]pyrimidin-2-amine]
71	Cc1cnc(-c2cc(N3CCc4nc(NC(=O)C5CC5)sc4C3)ncc2Cl)c(C)c1 [Compound A-26, N-(5-(5′-chloro-3,5-dimethyl-2,4′-bipyridin-2′-yl)-4,5,6,7-tetrahydro-thiazolo-[5,4-c]pyridin-2-yl)cyclo-propane carboxamide]

Same assay, conditions: Smo IC50 (nM), confirmation assay; competition with 100 nM bodipy-cyclopamine, Hek293-SMO cells

IC50 [nM]	SMILES
> 1000	CCNC(=O)c1cn2c(n1)CN(c1cc(-c3ncc(C)cc3C)c(Cl)cn1)CC2 [Compound A-9, 7-(5′-chloro-3,5-dimethyl-2,4′-bipyridin-2′-yl)-N-ethyl-5,6,7,8-tetrahydro-imidazo-[1,2-a]pyrazine-2-carboxamide]
311	Cc1cnc(-c2cc(N3CCn4cc(C(=O)Nc5ccccc5)nc4C3)ncc2Cl)c(C)c1 [Compound A-19, 7-(5′-chloro-3,5-dimethyl-2,4′-bipyridin-2′-yl)-N-phenyl-5,6,7,8-tetrahydro-imidazo-[1,2-a]pyrazine-2-carboxamide]
> 1000	Cc1cnc(-c2cc(N3CCn4cc(CO)nc4C3)ncc2Cl)c(C)c1 [Compound A-10, (7-(5′-chloro-3,5-dimethyl-2,4′-bipyridin-2′-yl)-5,6,7,8-tetrahydro-imidazo-[1,2-a]pyrazin-2-yl)methanol]
